Results: patent US8822534B2, “Substituted aminopropionic derivatives as neprilysin inhibitors” (priority 2009, dated 2014)

Biological target: recombinant human neutral endopeptidase (NEP, EC 3.4.24.11) (Homo sapiens (Human), UniProt P08473)
Experiment: in vitro inhibition of recombinant human neutral endopeptidase (fluorescence lifetime assay)
Format: biochemical
From the text: The activity of a compound according to the present invention can be assessed by the following in vitro & in vivo methods and/or by the following in vitro & in vivo methods well-described in the art. See A fluorescence lifetime-based assay for protease inhibitor profiling on human kallikrein 7 Doering K, Meder G, Hinnenberger M, Woelcke J, Mayr L M, Hassiepen U Biomol Screen.
In particular, the in vitro inhibition of recombinant human neutral endopeptidase (NEP, EC 3.4.24.11) can be determined as follows: […]

recombinant human neutral endopeptidase (NEP, EC 3.4.24.11), sequence (P08473 whole entry): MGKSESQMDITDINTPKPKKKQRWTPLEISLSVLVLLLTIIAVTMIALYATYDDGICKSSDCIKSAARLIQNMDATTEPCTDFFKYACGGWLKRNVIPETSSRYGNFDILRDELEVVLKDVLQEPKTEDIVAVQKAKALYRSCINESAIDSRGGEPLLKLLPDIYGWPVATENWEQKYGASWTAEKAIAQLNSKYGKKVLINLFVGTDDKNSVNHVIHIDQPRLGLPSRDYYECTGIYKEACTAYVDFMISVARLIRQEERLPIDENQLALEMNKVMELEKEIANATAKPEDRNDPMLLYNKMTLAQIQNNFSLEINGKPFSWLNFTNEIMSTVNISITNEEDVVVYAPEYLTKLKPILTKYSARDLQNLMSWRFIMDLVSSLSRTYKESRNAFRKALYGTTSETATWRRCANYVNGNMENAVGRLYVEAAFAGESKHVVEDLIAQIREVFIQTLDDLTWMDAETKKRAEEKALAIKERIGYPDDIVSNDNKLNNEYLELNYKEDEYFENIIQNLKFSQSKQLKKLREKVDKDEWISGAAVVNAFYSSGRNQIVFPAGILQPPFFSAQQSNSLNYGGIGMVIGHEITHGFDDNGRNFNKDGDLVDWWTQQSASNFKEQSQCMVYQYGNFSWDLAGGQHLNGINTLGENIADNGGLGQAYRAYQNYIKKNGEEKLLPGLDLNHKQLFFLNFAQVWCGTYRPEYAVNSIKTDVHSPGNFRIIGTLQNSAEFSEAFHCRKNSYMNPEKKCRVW

O=C(O)C[C@@H](Cc1ccc(-c2cccc(Cl)c2)cc1)NC(=O)CCC(=O)Oc1ccc2c(c1)CCC2 [Example 3-27]
IC50: 15 nM
